According to patent US9682995B2, “Amino-substituted isothiazoles” (BAYER PHARMA AKTIENGESELLSCHAFT, priority 2013, dated 2017):

How the values were obtained:
Format in all cases: cell-based
B16F10 = experiment: Proliferation assay (crystal violet), B16F10; settings: Mus musculus, B16-F10, 96 h; B16F10, 4 days; read-out: Inhibition of proliferation IC50 B16F10
Description: (§1) Cultivated tumor cells (cells were ordered from ATCC, except HeLa-MaTu and HeLa-MaTu-ADR, which were ordered from EPO-GmbH, Berlin) were plated at a density of 1000 to 5000 cells/well, depending on the growth rate of the respective cell line, in a 96-well multititer plate in 200 μL of their respective growth medium supplemented 10% fetal calf serum. After 24 hours, the cells of one plate (zero-point plate) were stained with crystal violet (see below), while the medium of the other plates was replaced by fresh culture medium (200 μl), to which the test substances were added in various concentrations (0 μM, as well as in the range of 0.001-10 μM; the final concentration of the solvent dimethyl sulfoxide was 0.5%). The cells were incubated for 4 days in the presence of test substances. Cell proliferation was determined by staining the cells with crystal violet: the cells were fixed by adding 20 μl/measuring point of an 11% glutaric aldehyde solution for 15 minutes at room temperature. After three washing cycles of the fixed cells with water, the plates were dried at room temperature. The cells were stained by adding 100 μl/measuring point of a 0.1% crystal violet solution (pH 3.0). After three washing cycles of the stained cells with water, the plates were dried at room temperature. The dye was dissolved by adding 100 μl/measuring point of a 10% acetic acid solution. Absorption was determined by photometry at a wavelength of 595 nm. The change of cell number, in percent, was calculated by normalization of the measured values to the absorption values of the zero-point plate (=0%) and the absorption of the untreated (0 μm) cells (=100%). The IC50 values were determined by means of a 4 parameter fit.

HeLa-MaTu-ADR = experiment: Proliferation assay (crystal violet), HeLa-MaTu-ADR; settings: 96 h, 4 days, read-out: Inhibition of proliferation IC50 HeLa-MaTu-ADR
Description: as §1

Caco2 = experiment: Proliferation assay (crystal violet), Caco2; settings: Homo sapiens, Caco-2, 96 h; Caco2, 4 days; read-out: Inhibition of proliferation IC50 Caco2
Description: as §1

DU145 = experiment: Proliferation assay (crystal violet), DU145; settings: Homo sapiens, DU-145, 96 h; DU145, 4 days; read-out: Inhibition of proliferation IC50 DU145
Description: as §1

NCI-H460 = experiment: Proliferation assay (crystal violet), NCI-H460; settings: Homo sapiens, 96 h; NCI-H460, 4 days; read-out: Inhibition of proliferation IC50 NCI-H460
Description: as §1

| Structure (SMILES) | IC50 (B16F10) [µM] | IC50 (HeLa-MaTu-ADR) [µM] | IC50 (Caco2) [µM] | IC50 (DU145) [µM] | IC50 (NCI-H460) [µM] |
| --- | --- | --- | --- | --- | --- |
| Cc1nsc(Nc2cnc(C(F)(F)F)cn2)c1C(=O)Nc1ccc(F)c(F)c1 [Example 81, N-(3,4-Difluorophenyl)-3-methyl-5-{[5-(trifluoromethyl)pyrazin-2-yl]amino}-1,2-thiazole-4-carboxamide] | 0.2 | 0.23 | 0.21 | 0.68 | 0.24 |
| Cc1nsc(Nc2cncc(Cl)n2)c1C(=O)Nc1ccc(F)c(F)c1 [Example 71, 5-[(6-Chloropyrazin-2-yl)amino]-N-(3,4-difluorophenyl)-3-methyl-1,2-thiazole-4-carboxamide] | 0.22 | 0.23 | 0.24 | 0.43 | 0.18 |
| CCc1cnc(Nc2snc(C)c2C(=O)Nc2ccc(F)c(F)c2)cn1 [Example 79, N-(3,4-Difluorophenyl)-5-[(5-ethylpyrazin-2-yl)amino]-3-methyl-1,2-thiazole-4-carboxamide] | 0.51 | 0.35 | 0.35 | 0.65 | 0.34 |
| Cc1nsc(Nc2ccc(C#N)cn2)c1C(=O)Nc1ccc(Cl)c(Cl)c1 [Example 62, 5-[(5-Cyanopyridin-2-yl)amino]-N-(3,4-dichlorophenyl)-3-methyl-1,2-thiazole-4-carboxamide] | 0.14 |  | 0.19 | 0.29 | 0.14 |
| COc1ccc(NC(=O)c2c(C)nsc2Nc2cncc(C(F)(F)F)n2)cn1 [Example 84, N-(6-methoxypyridin-3-yl)-3-methyl-5-{[6-(trifluoromethyl)pyrazin-2-yl]amino}-1,2-thiazole-4-carboxamide] | 0.29 | 0.33 | 0.24 | 0.84 | 0.18 |
| Cc1nsc(Nc2cncc(C(F)(F)F)n2)c1C(=O)Nc1ccc(F)c(F)c1 [Example 82, N-(3,4-Difluorophenyl)-3-methyl-5-{[6-(trifluoromethyl)pyrazin-2-yl]amino}-1,2-thiazole-4-carboxamide] | 0.14 | 0.13 | 0.17 | 0.27 | 0.056 |
| Cc1nsc(Nc2cnc3cc(C(F)(F)F)ccc3n2)c1C(=O)Nc1ccc(Cl)c(F)c1 [Example 68, N-(4-Chloro-3-fluorophenyl)-3-methyl-5-{[6-(trifluoromethyl)quinoxalin-2-yl]amino}-1,2-thiazole-4-carboxamide] | 0.33 | 0.32 | 0.24 | 0.57 | 0.35 |
| Cc1nsc(Nc2cncc(-n3cccn3)n2)c1C(=O)Nc1ccc(Cl)c(F)c1 [Example 67, N-(4-Chloro-3-fluorophenyl)-3-methyl-5-{[6-(1H-pyrazol-1-yl)pyrazin-2-yl]amino}-1,2-thiazole-4-carboxamide] | 0.16 | 0.18 | 0.21 | 0.32 | 0.21 |
| Cc1nsc(Nc2cncc(-n3cccn3)n2)c1C(=O)Nc1ccc(F)c(F)c1 [Example 64, N-(3,4-Difluorophenyl)-3-methyl-5-{[6-(1H-pyrazol-1-yl)pyrazin-2-yl]amino}-1,2-thiazole-4-carboxamide] | 0.47 | 0.27 | 0.72 | 0.47 | 0.26 |
| COc1ccc(NC(=O)c2c(C)nsc2Nc2cnc(C(F)(F)F)cn2)cn1 [Example 85, N-(6-methoxypyridin-3-yl)-3-methyl-5-{[5-(trifluoromethyl)pyrazin-2-yl]amino}-1,2-thiazole-4-carboxamide] | 0.5 | 0.36 | 0.37 | 0.7 | 0.42 |
| CCNc1cncc(Nc2snc(C)c2C(=O)Nc2ccc(F)c(F)c2)n1 [Example 78, N-(3,4-Difluorophenyl)-5-{[6-(ethylamino)pyrazin-2-yl]amino}-3-methyl-1,2-thiazole-4-carboxamide] | 2 | 1.1 | 1.5 | 3 | 3 |
| Cc1nsc(Nc2cnc(Br)cn2)c1C(=O)Nc1ccc(F)c(F)c1 [Example 77, 5-[(5-Bromopyrazin-2-yl)amino]-N-(3,4-difluorophenyl)-3-methyl-1,2-thiazole-4-carboxamide] | 0.22 | 0.094 | 0.18 | 0.28 | 0.18 |
| Cc1nsc(Nc2cnc(Cl)cn2)c1C(=O)Nc1ccc(F)c(F)c1 [Example 74, 5-[(5-Chloropyrazin-2-yl)amino]-N-(3,4-difluorophenyl)-3-methyl-1,2-thiazole-4-carboxamide] | 0.17 | 0.13 | 0.16 | 0.19 | 0.12 |
| CCNC(=O)c1cncc(Nc2snc(C)c2C(=O)Nc2ccc(F)c(F)c2)n1 [Example 73, 6-({4-[(3,4-Difluorophenyl)carbamoyl]-3-methyl-1,2-thiazol-5-yl}amino)-N-ethylpyrazine-2-carboxamide] | 0.39 | 0.1 | 0.32 | 0.51 | 0.62 |
| CCc1ccccc1NC(=O)c1c(C)nsc1Nc1cnc2cc(Cl)ccc2n1 [Example 86, 5-[(6-Chloroquinoxalin-2-yl)amino]-N-(2-ethylphenyl)-3-methyl-1,2-thiazole-4-carboxamide] | 0.32 | 0.26 | 0.31 | 0.51 | 0.17 |
| Cc1nsc(Nc2cnc3cc(C(F)(F)F)ccc3n2)c1C(=O)Nc1ccc(F)c(F)c1 [Example 60, N-(3,4-Difluorophenyl)-3-methyl-5-{[6-(trifluoromethyl)quinoxalin-2-yl]amino}-1,2-thiazole-4-carboxamide] | 0.25 | 0.24 | 0.22 | 0.43 | 0.23 |
| Cc1nsc(Nc2ccc(C(F)(F)F)nn2)c1C(=O)Nc1ccc(F)c(F)c1 [Example 83, N-(3,4-Difluorophenyl)-3-methyl-5-{[6-(trifluoromethyl)pyridazin-3-yl]amino}-1,2-thiazole-4-carboxamide] | 0.25 | 0.37 | 0.35 | 0.74 | 0.26 |
| CNC(=O)c1cnc(Nc2snc(C)c2C(=O)Nc2ccc(F)c(F)c2)cn1 [Example 75, 5-({4-[(3,4-Difluorophenyl)carbamoyl]-3-methyl-1,2-thiazol-5-yl}amino)-N-methylpyrazine-2-carboxamide] | 3 | 0.53 | 1.3 | 2.9 | 2.9 |
| CCc1ccccc1NC(=O)c1c(C)nsc1Nc1cc(C#N)ccn1 [Example 4, 5-[(4-Cyanopyridin-2-yl)amino]-N-(2-ethylphenyl)-3-methyl-1,2-thiazole-4-carboxamide] | 2.7 | 1.8 | 2.4 | 6.9 | 2 |
